# Data taken from US12097252B2, “Formulation of a peptide vaccine” (priority 2016, dated 2024).
# Marks after values point to notes of the source that are not given here.
# Columns and labels:
# [1] = system: TC-1 tumor cells, expressing the oncogenic E6 and E7 proteins of HPV16; experiment: Therapeutic vaccination of mice carrying TC-1 tumors; format: in vivo, C57BL/6 mice
# Experimental: The following groups of mice were included in the study: • Group 1: (n=5) 40% v/v DMSO/WFI emulsified 1:1 with Montanide ISA VG51. • Group 2: (n=5) Reconstitution composition (750 μL 0.1M Citric acid in water, 62.5 μL Propylene Glycol, 125 μL Ethanol and 62.5 μL Cremophor EL per mL) emulsified 1:1 with Montanide ISA VG51. • Group 3: (n=10) SLP […] and 20 μg CpG ODN1826/mouse dissolved in 40% v/v DMSO/WFI, emulsified 1:1 with Montanide ISA VG51. • Group 4: (n=10) SLP […] (SEQ ID NO: 6) and 20 μg CpG ODN1826/mouse dissolved in Reconstitution composition (750 μL 0.1M Citric acid in water, 62.5 μL Propylene Glycol, 125 μL Ethanol and 62.5 μL Cremophor EL per mL), emulsified 1:1 with Montanide ISA VG51.
# For mice in Group 1, a solution was prepared by admixing and subsequently swirling 400 μL DMSO and 600 μL WFI. The solution was taken up in a 2 mL Luer-Lock syringe (Syringe A). In another 2 mL Luer-Lock syringe (Syringe B) 1 mL of Montanide ISA VG51 was taken up, after which both syringes were connected to a T-connector. An emulsion was generated by mixing the contents back and forth extensively. After mixing, the syringes were disconnected and a 25 G needle was placed on the syringe containing the emulsion. Per mouse, 100 μL was injected in the left flank subcutaneously.
# The vaccine prepared for Group 2 was prepared in an identical manner, only differing by the use of reconstitution composition (750 μL 0.1M citric acid in water and 250 μL PG/EtOH/Cremophor EL 1:2:1, i.e. 0.075M citric acid, 6.25% v/v propylene glycol CAS no. 57-55-6, 12.5% v/v ethanol and 6.25% v/v polyoxyethyleneglyceroltriricinoleate 35 CAS no. 61791-12-6 in water) instead of DMSO and WFI. […]
# TC-1 tumor cells, expressing the oncogenic E6 and E7 proteins of HPV16 were cultured in complete IMDM culture medium, supplemented with 400 μg/ml geneticin. […] The tumor size of all mice was monitored at least twice a week using a caliper up to 75 days after tumor challenge.
# [2] = system: RAHYNIVTF-specific CD8^+ T cells; experiment: Strength of T cell response in blood, D^b-[…] tetramer flow cytometry; format: in vivo, C57BL/6 mice; conditions: for % Tm+ of CD8: emulsified 1:1 with Montanide ISA VG51, s.c.; for % CD62L+ KLRG1+ (% of TM+ CD8 T cells) / % CD62L− KLRG1+ (% of TM+ CD8 T cells): Montanide 1:1
# Experimental: On day 9 after vaccination, blood was drawn from the tail vein of all mice. Blood samples were transferred to a 96-wells culture plate and centrifuged for 5 minutes at 1600 rpm. Erythrocytes were lysed by suspending blood cell pellets in Lysis buffer until orange coloration was observed. Subsequently, cells were washed in FACS buffer and stained with the fluorescent antibodies, the D^b-[…]-APC tetramer and 7-AAD mentioned in the Materials section above. After 30 minutes of incubation on ice, cells were washed and analyzed on a BD LSRII flow cytometer in the Leiden University Medical Center (Dept. of Rheumatology).
# A study by Van Duikeren et al. (J Immunol, 2012; 189(7): 3397-403) aimed to identify parameters that correlated with the induction of an effective antitumor response. By identifying such biomarkers, different vaccine compositions can be tested in non-tumor bearing mice with prognostic value in tumor models. The authors found a correlation between the expression of KLRG1 and absence of CD62L expression on the one hand and effective antitumor immune responses on the other hand. We determined the percentages of KLRG1- and CD62L-expressing D^b-[…]^+ CD8^+ T cells in the blood of vaccinated mice on day 9 after vaccination using flow cytometry. No difference in percentage of […]-specific KLRG1^+ CD62L^− CD8^+ T cells is observed between groups 3 and 4. Not enough […]-specific CD8+ T cells were detected to reliably study the expression of KLRG1 and CD62L in the groups of mice vaccinated with vehicle only (Group 1 and 2). See Table 10 for the average percentages and standard deviations per group.
# [3] = Group 3 average: SLP SEQ ID NO: 6 + CpG ODN1826 in 40% v/v DMSO/WFI, blood day 9 after vaccination
# [4] = Group 4 average: SLP SEQ ID NO: 6 + CpG ODN1826 in Reconstitution composition, blood day 9 after vaccination
sequence,measurement,setting,value
GQAEPDRAHYNIVTFCCKCDSTLRLCVQSTHVDIR [SLP 6],outgrowth of TC-1 tumors,"[1]; SLP 6 and CpG1826 in DMSO/WFI or Reconstitution composition, Montanide emulsion, s.c. day 8, monitored up to 75 days",Tumor regression is observed in all mice
same,"overall tumor outgrowth, comparison of formulations",[1]; SLP 6 dissolved in DMSO/WFI vs Reconstitution composition,No differences were observed in overall tumor outgrowth
same,Kaplan-Meier survival,[1]; SLP-vaccinated groups: DMSO/WFI vs Reconstitution composition,no differences between the vaccinated groups
same,% Tm+ of CD8,"[2]; Group 3 average: SLP SEQ ID NO: 6 + 20 μg CpG ODN1826/mouse in 40% v/v DMSO/WFI, blood day 9 after vaccination",1.4%
same,% CD62L+ KLRG1+ (% of TM+ CD8 T cells),[2]; [3],4.0%
same,% CD62L− KLRG1+ (% of TM+ CD8 T cells),[2]; [3],51.9%
same,% Tm+ of CD8,"[2]; Group 4 average: SLP SEQ ID NO: 6 + 20 μg CpG ODN1826/mouse in Reconstitution composition (0.1M citric acid/PG/EtOH/Cremophor EL), blood day 9, p < 0.05 vs group 3",4.8* %
same,% CD62L+ KLRG1+ (% of TM+ CD8 T cells),[2]; [4],4.0%
same,% CD62L− KLRG1+ (% of TM+ CD8 T cells),[2]; [4],52.2%
same,percentage of induced D^b-RAYNIVTF (tetramer) positive CD8^+ T cells,"[2]; group 4 (Rec. composition+SLP) vs group 3 (DMSO+SLP), p=0.022",enhanced tetramer-positive CD8^+ T cell response
